Laboratory results reported in patent US20050277586A1, “Peptide chemically modified with polyethylene glycol” (priority 2002, published 2005).

How the values were obtained:
[1] = tested on: nuclease Bal 31; assay: Nuclease resistance-imparting ability for natural (P=O form) oligonucleotide; format: biochemical; conditions: 2 U Bal 31, 30° C., 60 minutes
Protocol: Nuclease resistance-imparting ability for natural (P═O form) oligonucleotide was evaluated. To be more specific, 2 U of nuclease Bal 31 (manufactured by Takara Shuzo) was added to 20 mM Tris-HCl buffer (pH=8) containing 50 μM of the peptide of SEQ ID NO: 1 prepared in Example 1, 3 μM of P═O form oligonucleotide prepared in Example 6, 150 mM NaCl, 12 mM MgCl2, and 12 mM CaC12, and the reaction was allowed to take place at 30° C. for 60 minutes. Next, the oligonucleotide which escaped from the decomposition was extracted with phenol/chloroform, and subjected to electrophoresis by the procedure described in Example 8 to stain the oligonucleotide.

[2] = biological target: phosphatidyl serine (binding of human Factor VIII); assay: Affinity for phosphatidyl serine (EIA, inhibition of human Factor VIII binding); conditions: in the presence of 5% BSA, human Factor VIII 1 μg/mL
Protocol: The specific affinity of the peptide for phosphatidyl serine was evaluated by measuring activity of the peptide for inhibiting the binding of the human Factor VIII to phosphatidyl serine by using human Factor VIII which is known to bind to phosphatidyl serine but not to phosphatidyl choline in the presence of serum albumin. To be more specific, 100 μL of ethanol solution containing 10 μg/mL of phospholipids at a phosphatidyl serine (manufactured by SIGMA): phosphatidyl choline (manufactured by SIGMA) ratio of 3:7 was added to the wells of a 96 well plate (Immulon I, manufactured by Dynatech), and exsiccated by using a centrifugal evaporator (EC-95C, manufactured by Sakuma Seisakusho) at 40° C. for 40 minutes. 200 μL each of TBS (10 mM Tris-HCl (pH 7.4) containing 1% bovine serum albumin (BSA Fraction V, hereinafter referred to as BSA, manufactured by Seikagaku Corporation) and 0.9% (W/V) NaCl solution were added to each well, and the wells were blocked by allowing the plate to stand at 37° C. for 2.5 hours. After washing the plate with water, 100 μL of TBS solution supplemented with 5% BSA mixed with human Factor VIII (manufactured by American Diagnostica) at a final concentration 1 μg/mL and the peptide of predetermined dose prepared in Example 1 was added to each well, and the reaction was allowed to take place at 4° C. for 24 hours.
After the completion of the reaction, the human Factor VIII that became bound to the phosphatidyl serine was measured by enzyme immunoassay (EIA) in accordance with the general procedure described in a book (“Enzyme Immunoassay (3rd ed.)”, Eiji Ishikawa et al., Igaku-Shoin, 1987). To be more specific, the measurement was conducted by using anti-human Factor VIII mouse monoclonal antibody (ESH8, manufactured by American Diagnostica) for the primary antibody, horseradish peroxidase-labeled anti-mouse IgG antibody (P0260, manufactured by Daco) for the secondary antibody, and tetramethylbenzidine for the chromogenic substrate, and measuring the absorption at a wavelength of 450 nm by using a reference wavelength of 630 nm on a spectrophotometer (NJ-2100, manufactured by Intermed).
Intensity of the affinity of the peptide for the phosphatidyl serine was evaluated by using the value obtained by subtracting the absorption of the well having no human Factor VIII added thereto from the absorption of the well having only the human Factor VIII added thereto as the control value (100%), and designating the peptide concentration at which the value 0.5 was obtained when the value obtained by subtracting the absorption of the well having only the peptide added thereto from the absorption of the well having a mixture of the human Factor VIII and the peptide added thereto were divided by the control value as the IC50 value, and evaluating the intensity to be ++ when the IC50 value was up to 1 μM, and + when the intensity was more than 1 μM but not more than 10 μM. It is to be noted that the specific affinity was evaluated to be none when the intensity was 10 μM or more.

[3] = tested on: T24 cell; assay: Luciferase-expressing plasmid introduction into T24 cell; format: cell-based, human
Description: A cell line established from monkey kidney (Vero cell) and a human bladder cancer cell (T24 cell) purchased from American Type Culture Collection (ATCC) and human lung cancer cell (A549 cell) purchased from Dainippon Pharmaceutical were inoculated on a 24 well culture plate (manufactured by NALGEN NUNC) at 1×10^5 cells/well. Vero cell and A549 cell were cultivated in DMEM (manufactured by Life Technologies Oriental) supplemented with 10% fetal bovine serum (hereinafter referred to as FBS, manufactured by NICHIREI), and T24 cell was cultivated in McCoy's 5a (manufactured by Life Technologies Oriental) supplemented with 10% FBS in 5% CO2 atmosphere at 37° C. for 24 hours. […] The luciferase activity expressed in the cell was then measured by the method instructed in luciferase assay system (manufactured by Promega). […]
20 μL of this cell lysate and 100 μL of the Luciferase Assay Reagent II attached to the kit was added to a fluorescence-measuring plate (Microlite™ 1 plate, manufactured by Dynatech), and after mixing, fluorescence was measured for 1 second by using a multilabel counter (ARVO™ SY1420 MULTILABEL COUNTER, manufactured by Wallac Beltold. […]

“TRYLRIHPRSWVHQIALRLRYLRIHPRSWVHQIALRS [SEQ ID NO: 1]” was tested, and the “Nuclease resistance-imparting ability for natural (P=O form) oligonucleotide” value [1] was “exhibit nuclease resistance-imparting ability”, the IC50 [2] was less than 1 µM and the Luciferase activity [3] was 7.8 × 10^3 cps/mg protein.
